According to ChEMBL document CHEMBL3608238, “Coronaridine, an iboga type alkaloid from Tabernaemontana divaricata, inhibits the Wnt signaling pathway by decreasing β-catenin mRNA expression” (Bioorg Med Chem Lett, 2015):
Active and inactive are the calls of the source. No cut-off for these calls is given here.

Key:
[1] = (§1) Inhibition of Wnt/beta-catenin in human STF/293 cells assessed as inhibition of TCF/beta catenin transcription after 24 hrs by SuperTOPFlash reporter gene assay; format: cell-based; conditions: STF/293, 24 h
STF/293 = test: as §1; format: cell-based
HEK-293T [2] = test: Inhibition of Wnt/beta-catenin in HEK293T cells assessed as inhibition of TCF/beta catenin transcription at 5 to 20 uM after 24 hrs by SuperFOPFlash reporter gene assay; format: cell-based; conditions: Homo sapiens
HEK293 = test: Cytotoxicity against HEK293 cells assessed as cell viability after 24 hrs by fluorescence assay; format: cell-based; conditions: Homo sapiens, HEK293, 24 h
HEK-293T [3] = test: Cytotoxicity against HEK293T cells assessed as cell viability after 24 hrs by fluorescence assay; format: cell-based; conditions: Homo sapiens
RKO = test: Cytotoxicity against Wnt-independent human RKO cells assessed as cell viability after 24 hrs by fluorescence assay; format: cell-based
SW480 [4] = test: Cytotoxicity against Wnt-dependent human SW480 cells assessed as cell viability after 24 hrs by fluorescence assay; format: functional, cell-based; conditions: SW480, 24 h
HCT-116 = test: Cytotoxicity against Wnt-dependent human HCT116 cells assessed as cell viability after 24 hrs by fluorescence assay; format: functional, cell-based; conditions: HCT-116, 24 h
[5] = Cytotoxicity against Wnt-dependent human DLD1 cells assessed as cell viability after 24 hrs by fluorescence assay; format: functional, cell-based; conditions: DLD-1, 24 h
SW480 [6] = test: Inhibition of Wnt/beta-catenin in human SW480 cells assessed as decrease in cytosolic beta-catenin level at 10 to 40 uM after 24 hrs by Western blot analysis; format: cell-based
SW480 [7] = test: Inhibition of Wnt/beta-catenin in human SW480 cells assessed as decrease in nuclear beta-catenin level at 10 to 40 uM after 24 hrs by Western blot analysis; format: cell-based
SW480 [8] = test: Inhibition of Wnt/beta-catenin in human SW480 cells assessed as beta-catenin phosphorylation at Ser33/Ser37/Thr40 at 10 to 40 uM after 24 hrs by Western blot analysis; format: cell-based
SW480 [9] = test: Inhibition of Wnt/beta-catenin in human SW480 cells assessed as beta-catenin phosphorylation at Ser45 at 10 to 40 uM after 24 hrs by Western blot analysis; format: cell-based
SW480 [10] = test: Effect on GSK3beta expression in human SW480 cells at 10 to 40 uM after 24 hrs by Western blot analysis; format: functional, cell-based
SW480 [11] = test: Effect on CK1alpha expression in human SW480 cells at 10 to 40 uM after 24 hrs by Western blot analysis; format: functional, cell-based
SW480 [12] = test: Inhibition of Wnt/beta-catenin in proteasome inhibitor MG132 pretreated human SW480 cells assessed as decrease in beta-catenin level at 40 uM co-treated with MG132 for 12 hrs by Western blot analysis; format: cell-based
SW480 [13] = test: Inhibition of Wnt/beta-catenin in human SW480 cells assessed as decrease in beta-catenin mRNA level at 40 uM by real time RT-PCR analysis; format: cell-based
HEK-293T [14] = test: Inhibition of Wnt/beta-catenin in HEK293T cells assessed as inhibition of TCF/beta catenin transcription at 10 to 40 uM after 24 hrs by SuperFOPFlash reporter gene assay; format: cell-based; conditions: Homo sapiens

CC[C@H]1C[C@@H]2CN3CC[C@]4(O)C(=Nc5ccccc54)[C@](C(=O)OC)(C2)[C@H]13 [CORONARIDINE HYDROXYINDOLENINE]
IC50 [1]: 7.3 µM | inhibition (STF/293): Dose-dependent effect | inhibition (HEK-293T [2]): Active | IC50 (HEK293): > 40 µM | IC50 (HEK-293T [3]): > 40 µM | IC50 (RKO): > 40 µM | IC50 (SW480 [4]): > 40 µM | IC50 (HCT-116): > 40 µM | IC50 [5]: > 40 µM

CC[C@H]1C[C@@H]2CN3CCc4c([nH]c5ccccc45)[C@](C(=O)OC)(C2)[C@H]13 [CORONARIDINE]
IC50 [1]: 5.8 µM | inhibition (STF/293): Dose-dependent effect | inhibition (HEK-293T [2]): Active | IC50 (HEK293): 31.7 µM | IC50 (HEK-293T [3]): > 40 µM | IC50 (RKO): > 40 µM | IC50 (SW480 [4]): 10.4 µM | IC50 (HCT-116): 11.6 µM | IC50 [5]: 24.4 µM | inhibition (SW480 [6]): Active | inhibition (SW480 [7]): Active | inhibition (SW480 [8]): inactive | inhibition (SW480 [9]): inactive | Activity (SW480 [10]): inactive | Activity (SW480 [11]): inactive | inhibition (SW480 [12]): Active | inhibition (SW480 [13]): Active

CC[C@H]1C[C@@H]2CN3CCc4c([nH]c5cc(OC)ccc45)[C@](C(=O)OC)(C2)[C@H]13 [ISOVOACANGINE]
IC50 [1]: 6 µM | inhibition (STF/293): Dose-dependent effect | inhibition (HEK-293T [2]): Active | IC50 (HEK293): 35.6 µM | IC50 (HEK-293T [3]): > 40 µM | IC50 (RKO): > 40 µM | IC50 (SW480 [4]): 11.2 µM | IC50 (HCT-116): 24.4 µM | IC50 [5]: > 40 µM

CC[C@H]1C[C@@H]2CN3CCc4c([nH]c5ccc(OC)cc45)[C@](C(=O)OC)(C2)[C@H]13 [VOACANGINE]
IC50 [1]: 11.5 µM | inhibition (STF/293): Dose-dependent effect | inhibition (HEK-293T [14]): inactive | IC50 (HEK293): > 40 µM | IC50 (HEK-293T [3]): > 40 µM | IC50 (RKO): > 40 µM | IC50 (SW480 [4]): > 40 µM | IC50 (HCT-116): > 40 µM | IC50 [5]: > 40 µM
